One assay concerns the target prothrombinase complex (Homo sapiens, UniProt P00742). The assay can be described thus: prothrombinase inhibition assay (plasma free system, Chromozym TH). The format is biochemical. How it is done:
The prothrombinase inhibition assay is performed in a plasma free system with modifications to the method described by Sinha, U. et al., Thromb. […] Specifically, the activity of the prothrombinase complex is determined by measuring the time course of thrombin generation using the p-nitroanilide substrate Chromozym TH. […] Aliquots from the complex-inhibitor mixture are added to prothrombin (1 nM) and Chromozym TH (0.1 mM). […] Eight different concentrations of inhibitor are assayed in duplicate. A standard curve of thrombin generation by an equivalent amount of untreated complex is used for determination of percent inhibition.

A further assay addresses thrombin (Homo sapiens, UniProt P00734). The assay can be described thus: thrombin amidolytic assay (Chromozym TH).
Another assay addresses factor Xa (Homo sapiens, UniProt P00742). The assay can be described thus: factor Xa amidolytic assay (chromogenic substrate S-2765).
The mark [1] stands for this setting: Table 3, probe of regiochemistry.

Sequence of factor Xa (P00742 41-179 limits assumed): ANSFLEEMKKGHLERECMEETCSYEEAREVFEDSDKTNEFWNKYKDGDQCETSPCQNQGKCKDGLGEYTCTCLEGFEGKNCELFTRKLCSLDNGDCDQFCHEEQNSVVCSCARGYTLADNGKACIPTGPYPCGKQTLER
Sequence of factor Xa (P00742 235-488 limits assumed): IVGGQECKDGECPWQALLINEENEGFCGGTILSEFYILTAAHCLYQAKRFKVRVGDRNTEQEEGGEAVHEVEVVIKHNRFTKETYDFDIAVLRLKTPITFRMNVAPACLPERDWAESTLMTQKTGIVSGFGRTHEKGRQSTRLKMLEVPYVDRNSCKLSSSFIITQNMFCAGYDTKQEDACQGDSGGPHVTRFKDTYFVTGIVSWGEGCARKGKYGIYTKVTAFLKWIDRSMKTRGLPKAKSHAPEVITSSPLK
Sequence of prothrombinase complex (P00742 41-179 limits assumed): as the sequence (P00742 41-179 limits assumed) above
Sequence of prothrombinase complex (P00742 235-488 limits assumed): as the sequence (P00742 235-488 limits assumed) above
Sequence of prothrombinase complex (P12259 29-737 partner limits assumed): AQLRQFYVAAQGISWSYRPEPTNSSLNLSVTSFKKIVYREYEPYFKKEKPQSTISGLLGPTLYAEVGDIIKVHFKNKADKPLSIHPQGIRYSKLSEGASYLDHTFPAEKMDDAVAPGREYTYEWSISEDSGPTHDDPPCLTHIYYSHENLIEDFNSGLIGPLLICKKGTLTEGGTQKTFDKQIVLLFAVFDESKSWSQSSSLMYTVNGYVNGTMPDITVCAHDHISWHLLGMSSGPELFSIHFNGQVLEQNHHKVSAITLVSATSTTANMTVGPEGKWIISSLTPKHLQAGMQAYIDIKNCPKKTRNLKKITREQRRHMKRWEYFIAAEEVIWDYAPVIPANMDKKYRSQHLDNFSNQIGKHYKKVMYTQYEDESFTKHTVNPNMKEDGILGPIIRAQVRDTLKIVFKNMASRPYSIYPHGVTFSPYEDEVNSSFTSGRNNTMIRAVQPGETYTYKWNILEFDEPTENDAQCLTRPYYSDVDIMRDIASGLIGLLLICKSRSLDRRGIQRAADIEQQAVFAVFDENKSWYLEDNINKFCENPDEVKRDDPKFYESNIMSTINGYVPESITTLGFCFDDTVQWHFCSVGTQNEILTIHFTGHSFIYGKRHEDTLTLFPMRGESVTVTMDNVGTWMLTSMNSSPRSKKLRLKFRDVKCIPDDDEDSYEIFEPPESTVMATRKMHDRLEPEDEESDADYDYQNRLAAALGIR
Sequence of prothrombinase complex (P12259 1574-2224 partner limits assumed): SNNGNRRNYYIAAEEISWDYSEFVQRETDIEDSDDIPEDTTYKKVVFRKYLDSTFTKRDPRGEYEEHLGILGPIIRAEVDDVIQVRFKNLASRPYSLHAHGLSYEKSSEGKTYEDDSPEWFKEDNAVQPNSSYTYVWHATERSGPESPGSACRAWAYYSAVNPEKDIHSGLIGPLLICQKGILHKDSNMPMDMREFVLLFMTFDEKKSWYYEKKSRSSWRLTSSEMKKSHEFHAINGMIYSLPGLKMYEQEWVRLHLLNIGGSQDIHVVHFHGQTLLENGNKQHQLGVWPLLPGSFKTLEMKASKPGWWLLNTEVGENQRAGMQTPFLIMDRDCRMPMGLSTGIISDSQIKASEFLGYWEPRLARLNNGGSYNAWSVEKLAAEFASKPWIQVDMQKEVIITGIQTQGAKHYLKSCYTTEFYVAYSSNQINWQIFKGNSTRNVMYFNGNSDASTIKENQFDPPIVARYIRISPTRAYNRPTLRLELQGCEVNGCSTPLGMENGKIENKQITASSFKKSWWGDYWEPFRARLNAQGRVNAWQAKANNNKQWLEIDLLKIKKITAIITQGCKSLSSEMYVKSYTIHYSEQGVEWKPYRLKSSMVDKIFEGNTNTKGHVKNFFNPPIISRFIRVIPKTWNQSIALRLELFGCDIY
Description for factor Xa: In the assays for thrombin, prothrombinase and factor Xa, a synthetic chromogenic substrate is added to a solution containing test compound and the enzyme of interest and the residual catalytic activity of that enzyme is determined spectrophotometrically. The IC50 of a compound is determined from the substrate turnover. […] The factor Xa and thrombin assays are performed at room temperature, in 0.02 M Tris·HCl buffer, pH 7.5, containing 0.15 M NaCl.

As for `N=C(N)c1ccc2ccc(CN3C(=O)COc4cc(NS(=O)(=O)c5ccc6cc(Br)ccc6c5)ccc43)cc2c1` [Cmpd 35], the IC50 at prothrombinase complex (Table 5) turned out to be 98000 nM; against thrombin, 83.7 µM; at factor Xa, 268000 nM.

Take `CC(=N)N1CCC(Oc2ccc3c(c2)OCC(=O)N3Cc2cccc(-c3cccc(C(=N)N)c3)c2)CC1` [Cmpd 23]: the values for the IC50 against prothrombinase complex (setting [1]), on thrombin and against factor Xa were 214 nM, 11 µM and 37.6 nM, respectively.

For the compound `N=C(N)c1cccc(-c2cccc(CN3C(=O)COc4ccc(-c5ccccc5S(N)(=O)=O)cc43)c2)c1` [Cmpd 37], the IC50 came to 3000 nM on prothrombinase complex (Table 6, monoamidine); 8.7 µM against thrombin; 890 nM on factor Xa.

Regarding `N=C(N)c1ccc2ccc(CN3C(=O)COc4cc(NS(=O)(=O)c5cccc6ncccc56)ccc43)cc2c1` [Cmpd 34], the values for the IC50 against prothrombinase complex (Table 5), against thrombin and against factor Xa were 364000 nM, 109 µM and 19500 nM, respectively.

For the compound `CC(=N)N1CCC(Oc2ccc3c(c2)N(Cc2ccc4ccc(C(=N)N)cc4c2)C(=O)CO3)CC1` [Cmpd 26], the 50% inhibitory concentration (IC50) at prothrombinase complex (setting [1]) came to 352 nM; against thrombin, 81 µM; at factor Xa, 191 nM.

As to `N=C(N)c1ccc2ccc(CN3C(=O)COc4ccc(-c5ccccc5S(N)(=O)=O)cc43)cc2c1` [Cmpd 36], the IC50 at prothrombinase complex (Table 6, monoamidine) stood at 2000 nM; on thrombin, 26.7 µM; against factor Xa it was 68 nM.

As for `N=C(N)c1ccc2ccc(CN3C(=O)COc4cc(NS(=O)(=O)c5ccccc5)ccc43)cc2c1` [Cmpd 32], the values for the IC50 against prothrombinase complex (Table 5), against thrombin and against factor Xa were 55200 nM, 34.5 µM and 21900 nM, respectively.

With `Cc1cc(CN2C(=O)COc3cc(-c4ccccc4S(N)(=O)=O)ccc32)n(-c2cccc(C(=N)N)c2)n1` [Cmpd 38], the half-inhibitory concentration (IC50) at prothrombinase complex (Table 6, monoamidine) is more than 11000 nM; on thrombin it was more than 11 µM; on factor Xa, more than 11000 nM.

Take `N=C(N)c1ccc(C(=O)Nc2ccc3c(c2)OCC(=O)N3Cc2ccc3ccc(C(=N)N)cc3c2)cc1` [Cmpd 31]: the IC50 on prothrombinase complex (Table 5) is 67500 nM; against thrombin, 204 µM; against factor Xa, 10100 nM.

Turning to `CC(=N)N1CCC(Oc2ccc3c(c2)OCC(=O)N3Cc2cc(-c3cccc(C(=N)N)c3)no2)CC1` [Cmpd 27], the IC50 against prothrombinase complex (Table 4) amounted to 159 nM; at thrombin it was 250 µM; against factor Xa it was 52.4 nM.

Regarding `CC(=N)N1CCC(Oc2ccc3c(c2)OCC(=O)N3Cc2ccc3ccc(C(=N)N)cc3c2)CC1` [Cmpd 24], the midpoint of inhibition against thrombin, the IC50, lay at 334 µM.

As to `CC(=N)N1CCC(Oc2ccc3c(c2)N(Cc2cccc(-c4cccc(C(=N)N)c4)c2)C(=O)CO3)CC1` [Cmpd 25], the figures for the half-inhibitory concentration (IC50) against prothrombinase complex (setting [1]), against thrombin and against factor Xa were 934 nM, 5.37 µM and 344 nM, respectively.

`COc1ccc(S(=O)(=O)Nc2ccc3c(c2)OCC(=O)N3Cc2ccc3ccc(C(=N)N)cc3c2)cc1` [Cmpd 33]: the IC50 came to 81000 nM against prothrombinase complex (Table 5), 34.9 µM against thrombin and 38200 nM against factor Xa.

Consider `CC(=N)N1CCC(Oc2ccc3c(c2)OCC(=O)N3Cc2cc3ccc(C(=N)N)cc3n2C)CC1` [Cmpd 28], for which the half-inhibitory concentration (IC50) was 6.6 nM against prothrombinase complex (Table 4) and 2 nM on factor Xa.

The values are drawn from US20020013314A1, “3,4-dihydro-2H-benzo[1,4]oxazine inhibitors of factor Xa” (priority 2000, published 2002).
